Assay results reported in BindingDB's records for doi:10.7270/Q2805129 (Vanderbilt Screening Center For Gpcrs, Ion Channels and …, 2009).

Molecular target: T1, Muscarinic acetylcholine receptor M5 (Homo sapiens, UniProt P08912)
T1 sequence (P08912 whole entry): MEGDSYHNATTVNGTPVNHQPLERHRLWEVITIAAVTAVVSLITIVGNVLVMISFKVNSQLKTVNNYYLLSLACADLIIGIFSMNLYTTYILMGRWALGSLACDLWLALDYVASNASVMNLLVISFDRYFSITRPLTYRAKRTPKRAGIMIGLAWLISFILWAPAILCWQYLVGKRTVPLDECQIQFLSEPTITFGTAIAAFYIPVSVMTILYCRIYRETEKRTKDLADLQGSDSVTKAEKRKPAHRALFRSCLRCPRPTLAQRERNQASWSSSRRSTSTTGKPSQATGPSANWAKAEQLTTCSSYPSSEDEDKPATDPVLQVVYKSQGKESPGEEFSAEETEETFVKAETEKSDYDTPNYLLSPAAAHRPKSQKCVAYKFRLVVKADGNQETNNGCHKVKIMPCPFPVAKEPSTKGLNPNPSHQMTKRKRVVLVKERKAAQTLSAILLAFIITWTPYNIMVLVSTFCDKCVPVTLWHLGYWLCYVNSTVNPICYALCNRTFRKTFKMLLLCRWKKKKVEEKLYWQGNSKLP
Assay: compound effect on ACh competition at M5, biochemical, [3H]N-methylscopolamine, acetylcholine (AID 2194)

Structure (SMILES): COc1ccc(CN2C(=O)C(=O)c3cc(OC(F)(F)F)ccc32)cc1 [VU0238429]
- Ki: 0.159 µM
